Data from US10611750B2, “Tetrahydroquinoline compositions as bet bromodomain inhibitors” (FORMA Therapeutics, Inc., priority 2013, dated 2020).

Columns and labels:
[1] = target: T1, BRD4 Bromodomain 2 (BRD4 BD2) (Homo sapiens, UniProt O60885); experiment: AlphaScreen binding assay, BRD4 BD2; conditions: His-tagged BRD4 BD2 100 nM, biotinylated H4 (1-21) K5/8/12/16 tetra-acetylated peptide 100 nM, compounds listed under IC50 range headings
T1 construct: 333-460 were cloned, expressed, and purified to homogeneity
Method in brief: (§1)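 Compound dilution series were mixed with His-tagged BRD4 bromodomain and biotinylated tetra-acetylated H4 (1-21) peptide at pH 7.3 (BD1 and peptide at 50 nM, BD2 and peptide at 100 nM). Donor and acceptor beads were then added, and plates were equilibrated at least 1 h before reading. IC50 values were fitted with a four-parameter logistic model.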

[2] = system: acute myelocytic leukemia (AML) cell line MV4-11; experiment: Oncology cell growth assay (3-day proliferation, CellTiter-Glo); assay type: cell-based; conditions: Homo sapiens, MV4-11, 72 h, MV4-11 cells, 3000 cells/well, compounds listed under IC50 range headings, read-out: MV411 IC50 (gIC50, inhibition of proliferation)
Method in brief: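 72 h, 37° C, 5% CO2; MV4-11, 3000 cells/well, RPMI 1640 + 10% FBS. Compound final 10, 3.3, 1.1, 0.37, 0.12, 0.041, 0.013, 0.0045 μM. Readout CellTiter-Glo luminescence; gIC50 by 4-parameter logistic fit, normalised to DMSO and no-cell background.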

[3] = target: T2, BRD4 Bromodomain 1 (BRD4 BD1) (Homo sapiens, UniProt O60885); experiment: AlphaScreen binding assay, BRD4 BD1; conditions: His-tagged BRD4 BD1 50 nM, biotinylated H4 (1-21) K5/8/12/16 tetra-acetylated peptide 50 nM, compounds listed under IC50 range headings
T2 construct: 44-168 and BRD4 BD2
Method in brief: as §1

IC50 [1] | IC50 [2] | IC50 [3] | SMILES
< 50 nM | < 500 nM | 100 to 1000 nM | COC(=O)N1c2ccc(-c3cnn(CCS(C)(=O)=O)c3)c(OC3CCC3)c2CC[C@@H]1C [I-444]
50 to 500 nM | < 500 nM | 1000 to 10000 nM | COC(=O)N1c2ccc(-c3cnn(C4CCNCC4)c3)c(Oc3ccnc(C(F)(F)F)n3)c2CC[C@@H]1C [I-529]
50 to 500 nM | > 1000 nM | 1000 to 10000 nM | CC(=O)N1c2ccc(-c3cnn(C4CCNCC4)c3)c(Oc3ncccc3C(N)=O)c2CC[C@@H]1C [I-520]
< 50 nM | > 1000 nM | 1000 to 10000 nM | CC(=O)N1c2ccc(-c3cnn(C4CC4)c3)c(OCc3ccncc3)c2CC[C@@H]1C [I-479]
50 to 500 nM | > 1000 nM | 100 to 1000 nM | CC(=O)N1c2ccc(-c3cnn(C4CC4)c3)c(OCC(=O)N3CCOCC3)c2CC[C@@H]1C [I-43, (S)-2-(1-acetyl-6-(1-cyclopropyl-1H-pyrazol-4-yl)-2-methyl-1,2,3,4-tetrahydroquinolin-5-yloxy)-1-morpholinoethanone]
50 to 500 nM | 500 to 1000 nM | 1000 to 10000 nM | COC(=O)N1c2ccc(-c3cnn(CC(C)(C)O)c3)c(Oc3ncc(F)cn3)c2CC[C@@H]1C [I-575]
50 to 500 nM | < 500 nM | 100 to 1000 nM | COC(=O)N1c2ccc(-c3cnn(CC(C)(C)O)c3)c(OCC3CCOCC3)c2CC[C@@H]1C [I-449]
50 to 500 nM | > 1000 nM | ≥ 10000 nM | CCCOc1c(C2=CCN(C(=O)OC(C)(C)C)CC2)ccc2c1CC[C@H](C)N2C(C)=O [I-34, tert-butyl (S)-4-(1-acetyl-2-methyl-5-propoxy-1,2,3,4-tetrahydroquinolin-6-yl)-3,6-dihydropyridine-1(2H)-carboxylate]
≥ 500 nM | > 1000 nM | 1000 to 10000 nM | CCCOc1c(-c2cc3ccccc3o2)ccc2c1CC[C@H](C)N2C(C)=O [I-504]
< 50 nM | > 1000 nM | 1000 to 10000 nM | COC(=O)N1c2ccc(-c3cnn(C4CC4)c3)c(OCCF)c2CC[C@@H]1C [I-11, (S)-methyl 6-(1-cyclopropyl-1H-pyrazol-4-yl)-5-(2-fluoroethoxy)-2-methyl-3,4-dihydroquinoline-1(2H)-carboxylate]
< 50 nM | < 500 nM | 100 to 1000 nM | CC(=O)N1c2ccc(-c3cnn(C4CC4)c3)c(Oc3ncccc3C(F)(F)F)c2CC[C@@H]1C [I-86, (S)-1-(6-(1-cyclopropyl-1H-pyrazol-4-yl)-2-methyl-5-(3-(trifluoromethyl)pyridin-2-yloxy)-3,4-dihydroquinolin-1 (2H)-yl)ethanone]
< 50 nM | > 1000 nM | 100 to 1000 nM | CC(=O)N1c2ccc(-c3cnn(C4CC4)c3)c(OCC3(CO)COC3)c2CC[C@@H]1C [I-49, (S)-1-(6-(1-cyclopropyl-1H-pyrazol-4-yl)-5-((3-(hydroxymethyl)oxetan-3-yl)methoxy)-2-methyl-3,4-dihydroquinolin-1(2H)-yl)ethanone]
50 to 500 nM | < 500 nM | 1000 to 10000 nM | CC(=O)N1c2ccc(-c3cnn(C4CCNCC4)c3)c(Oc3nccc(C(F)(F)F)n3)c2CC[C@@H]1C [I-514]
< 50 nM | < 500 nM | 100 to 1000 nM | CC(=O)N1c2ccc(-c3cnn(CCS(C)(=O)=O)c3)c(OCC(C)C)c2CC[C@@H]1C [I-420]
50 to 500 nM | < 500 nM | 100 to 1000 nM | CC(=O)N1c2ccc(-c3cnn(C4CC4)c3)c(Oc3ccc(C(N)=O)cc3)c2CC[C@@H]1C [I-209, (S)-4-(1-acetyl-6-(1-cyclopropyl-1H-pyrazol-4-yl)-2-methyl-1,2,3,4-tetrahydroquinolin-5-yloxy)benzamide]
50 to 500 nM | < 500 nM | 1000 to 10000 nM | COC(=O)N1c2ccc(-c3cnn(C4CC4)c3)c(Oc3ccc(F)cc3)c2CC[C@@H]1C [I-212, (S)-methyl 6-(1-cyclopropyl-1H-pyrazol-4-yl)-5-(4-fluorophenoxy)-2-methyl-3,4-dihydroquinoline-1(2H)-carboxylate]
50 to 500 nM | < 500 nM | 1000 to 10000 nM | CCCOc1c(-c2ccc(OCCN(C)C)cc2)ccc2c1CC[C@H](C)N2C(C)=O [I-486]
50 to 500 nM | 500 to 1000 nM | 1000 to 10000 nM | COC(=O)N1c2ccc(-c3cnn(CCS(C)(=O)=O)c3)c(Oc3ncc(F)cn3)c2CC[C@@H]1C [I-574]
50 to 500 nM | > 1000 nM | 1000 to 10000 nM | COC(=O)N1c2ccc(-c3cnn(CCS(C)(=O)=O)c3)c(Oc3ncccc3C(N)=O)c2CC[C@@H]1C [I-586]

IC50 [1] | IC50 [2] | IC50 [3] | SMILES
< 50 nM | < 500 nM | 100 to 1000 nM | COC(=O)N1c2ccc(-c3cnn(C4CCNCC4)c3)c(Oc3ccccc3)c2CC[C@@H]1C [I-200, (S)-methyl 2-methyl-5-phenoxy-6-(1-(piperidin-4-yl)-1H-pyrazol-4-yl)-3,4-dihydroquinoline-1(2H)-carboxylate]
≥ 500 nM | > 1000 nM | ≥ 10000 nM | CCCOc1c(C2CCN(S(C)(=O)=O)CC2)ccc2c1CC[C@H](C)N2C(C)=O [I-355, (S)-1-(2-methyl-6-(1-(methylsulfonyl)piperidin-4-yl)-5-propoxy-3,4-dihydroquinolin-1 (2H)-yl)ethan-1-one]
50 to 500 nM | < 500 nM | 100 to 1000 nM | CC(=O)N1c2ccc(-c3cnn(C4CC4)c3)c(Oc3ccnc(C(F)(F)F)n3)c2CC[C@@H]1C [I-93, (S)-1-(6-(1-cyclopropyl-1H-pyrazol-4-yl)-2-methyl-5-(2-(trifluoromethyl)pyrimidin-4-yloxy)-3,4-dihydroquinolin-1(2H)-yl)ethanone]
50 to 500 nM | 500 to 1000 nM | 1000 to 10000 nM | CC(=O)N1c2ccc(-c3cnn(C4CC4)c3)c(OCC(F)(F)F)c2CC[C@@H]1C [I-35, (S)-1-(6-(1-cyclopropyl-1H-pyrazol-4-yl)-2-methyl-5-(2,2,2-trifluoroethoxy)-3,4-dihydroquinolin-1(2H)-yl)ethanone]
< 50 nM | < 500 nM | 100 to 1000 nM | CC(=O)N1c2ccc(-c3cnn(CCO)c3)c(OC3CCC3)c2CC[C@@H]1C [I-411]
< 50 nM | > 1000 nM | 100 to 1000 nM | COC(=O)N1c2ccc(-c3cnn(C4CC4)c3)c(OCC(=O)N3CCCCC3)c2CC[C@@H]1C [I-24, (S)-methyl 6-(1-cyclopropyl-1H-pyrazol-4-yl)-2-methyl-5-(2-oxo-2-(piperidin-1-yl)ethoxy)-3,4-dihydroquinoline-1(2H)-carboxylate]
50 to 500 nM | 500 to 1000 nM | 100 to 1000 nM | CC(=O)N1c2ccc(-c3cnn(C4CC4)c3)c(OC[C@@H]3CCNC3)c2CC[C@@H]1C [I-602]
< 50 nM | < 500 nM | < 100 nM | CC(=O)N1c2ccc(-c3cnn(CCO)c3)c(OCC3CCOCC3)c2CC[C@@H]1C [I-415]
50 to 500 nM | 500 to 1000 nM | 1000 to 10000 nM | COC(=O)N1c2ccc(-c3cnn(C4CCNCC4)c3)c(Oc3ncc(C(F)(F)F)cn3)c2CC[C@@H]1C [I-534]
50 to 500 nM | < 500 nM | 100 to 1000 nM | CC(=O)N1c2ccc(-c3cnn(CCO)c3)c(Oc3ncc(F)cn3)c2CC[C@@H]1C [I-543]
50 to 500 nM | > 1000 nM | 1000 to 10000 nM | COC(=O)N1c2ccc(-c3cnn(CCS(C)(=O)=O)c3)c(Oc3ncc(C4CC4)cn3)c2CC[C@@H]1C [I-570]
< 50 nM | < 500 nM | < 100 nM | CC(=O)N1c2ccc(-c3cnn(C4CCNCC4)c3)c(OCC3CCCC3)c2CC[C@@H]1C [I-427]
50 to 500 nM | 500 to 1000 nM | 1000 to 10000 nM | CC(=O)N1c2ccc(-c3cnn(C4CC4)c3)c(Oc3ncc4[nH]cnc4n3)c2CC[C@@H]1C [I-289, (S)-1-(5-(7H-purin-2-yloxy)-6-(1-cyclopropyl-1H-pyrazol-4-yl)-2-methyl-3,4-dihydroquinolin-1(2H)-yl)ethanone]
< 50 nM | < 500 nM | 100 to 1000 nM | COC(=O)N1c2ccc(-c3cnn(C4CCNC4)c3)c(Oc3ccc(F)cc3)c2CC[C@@H]1C (stereo partly drawn) [I-185, (2S)-methyl 5-(4-fluorophenoxy)-2-methyl-6-(1-(pyrrolidin-3-yl)-1H-pyrazol-4-yl)-3,4-dihydroquinoline-1(2H)-carboxylate]
50 to 500 nM | > 1000 nM | 100 to 1000 nM | COC(=O)N1c2ccc(-c3cnn(C4CCNCC4)c3)c(OCC(=O)N3CCCC3)c2CC[C@@H]1C [I-466]
50 to 500 nM | 500 to 1000 nM | 1000 to 10000 nM | COC(=O)N1c2ccc(-c3cnn(C4CCNCC4)c3)c(Oc3ncc(C(F)(F)F)cc3F)c2CC[C@@H]1C [I-536]
< 50 nM | < 500 nM | 100 to 1000 nM | CC(=O)N1c2ccc(-c3ccc(N4CCCS4(=O)=O)cc3)c(Oc3ncc(F)cn3)c2CC[C@@H]1C [I-553]
50 to 500 nM | > 1000 nM | 1000 to 10000 nM | CC(=O)N1c2ccc(-c3cnn(C4CCNCC4)c3)c(Oc3ccc(C(N)=O)cn3)c2CC[C@@H]1C [I-523]
< 50 nM | < 500 nM | < 100 nM | COC(=O)N1c2ccc(-c3cnn(C4CCNCC4)c3)c(OC3CCC3)c2CC[C@@H]1C [I-447]
